The record followed here is PMC12154458, “High-Throughput Screens of Repurposing Hub and DOS Chemical Libraries Reveal Compounds with Novel and Potent Inhibitory Activity Against the Essential Non-Neuronal Acetylcholinesterase of Schistosoma mansoni (SmTAChE)” (International Journal of Molecular Sciences, 2025).

Where two headings read alike, the source gives them in different places.

Assay [1] has as its target T1, rSmTAChE (Schistosoma mansoni, UniProt A0A3Q0KMM5). Put plainly: biochemical.
Assay [2] deals with T1, rSmTAChE. The format is biochemical.
Assay [3] deals with recombinant human acetylcholinesterase, rHsAChE (Homo sapiens, UniProt P22303). Put plainly: biochemical.
Chain of recombinant human acetylcholinesterase, rHsAChE (P22303 32-614): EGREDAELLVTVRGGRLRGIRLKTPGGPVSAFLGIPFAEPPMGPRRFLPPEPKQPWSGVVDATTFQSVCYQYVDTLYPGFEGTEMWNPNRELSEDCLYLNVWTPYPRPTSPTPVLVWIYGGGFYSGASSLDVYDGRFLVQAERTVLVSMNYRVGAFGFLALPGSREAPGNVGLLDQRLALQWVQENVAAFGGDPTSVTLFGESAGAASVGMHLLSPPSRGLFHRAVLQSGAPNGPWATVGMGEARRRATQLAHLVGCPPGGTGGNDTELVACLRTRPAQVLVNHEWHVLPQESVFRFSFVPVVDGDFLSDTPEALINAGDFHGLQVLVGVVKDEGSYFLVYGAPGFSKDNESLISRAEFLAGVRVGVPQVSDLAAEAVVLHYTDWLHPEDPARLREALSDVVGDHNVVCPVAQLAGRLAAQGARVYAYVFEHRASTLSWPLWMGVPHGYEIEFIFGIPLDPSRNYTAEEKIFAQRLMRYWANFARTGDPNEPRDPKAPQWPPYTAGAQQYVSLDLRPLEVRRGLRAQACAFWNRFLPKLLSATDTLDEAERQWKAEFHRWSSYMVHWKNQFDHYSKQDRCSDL
The mark [4] stands for this setting: read-out: qAC50 (IC50), rSmTAChE.
The mark [5] stands for this setting: read-out: rSmTAChE HTS Inhibition (Ave, %).
Where [6] appears, read: read-out: qAC50 (IC50), rHsAChE.
Setting [7] is: dose response analysis of Drug Repurposing Hub hits against rHsAChE.
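For Inhibition (%) (Average) in this document: mostly 20 µM final but a few compounds at 5 or 10 µM.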
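For Inhibition (%) Replicate A in this document: mostly 20 µM final but a few compounds at 5 or 10 µM.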
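For Inhibition (%) Replicate B in this document: mostly 20 µM final but a few compounds at 5 or 10 µM.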

T1 sequence (A0A3Q0KMM5 27-661 limits assumed): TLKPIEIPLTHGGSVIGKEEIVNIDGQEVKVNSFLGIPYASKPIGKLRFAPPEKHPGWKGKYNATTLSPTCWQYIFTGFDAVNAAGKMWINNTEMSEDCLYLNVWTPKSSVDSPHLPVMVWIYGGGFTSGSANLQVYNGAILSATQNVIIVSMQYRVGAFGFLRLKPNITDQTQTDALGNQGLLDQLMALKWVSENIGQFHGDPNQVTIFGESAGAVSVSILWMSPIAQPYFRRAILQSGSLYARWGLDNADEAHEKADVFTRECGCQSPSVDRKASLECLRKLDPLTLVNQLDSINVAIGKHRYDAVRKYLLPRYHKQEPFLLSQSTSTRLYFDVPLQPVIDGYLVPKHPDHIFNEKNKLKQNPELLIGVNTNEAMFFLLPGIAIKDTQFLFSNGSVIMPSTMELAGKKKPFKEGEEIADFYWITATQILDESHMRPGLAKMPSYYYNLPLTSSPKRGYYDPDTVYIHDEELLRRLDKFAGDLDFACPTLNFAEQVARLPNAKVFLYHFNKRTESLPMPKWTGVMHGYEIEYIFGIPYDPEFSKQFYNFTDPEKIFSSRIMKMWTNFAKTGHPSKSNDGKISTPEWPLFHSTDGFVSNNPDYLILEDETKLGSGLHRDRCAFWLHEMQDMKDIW

Regarding `N#C[C@H]1[C@H](c2ccc(C3=CCCCC3)cc2)[C@@H](CO)N1S(=O)(=O)c1ccccc1` [BRD-K66729212-001-01-2], on rSmTAChE [1], the “Inhibition (%) (Average)” value is given as 61.17%, the “Inhibition (%) Replicate A” value came to 61.05% and the “Inhibition (%) Replicate B” value amounted to 61.28%. Moreover, the “rSmTAChE Data Mode” value at rSmTAChE [2] was “inactive”. Further, the “rHsAChE Data Mode” value in assay [3] was “inactive”.
With `C/C=C/c1cccc(-c2nc(C(=O)NCc3ccc(OC)cc3)cc3c2[C@@H](CCO)N([S@+]([O-])C(C)(C)C)C3)c1` [BRD-K73104592-001-03-5], at rSmTAChE [1], the “Inhibition (%) (Average)” value was found to be 64.19%, the “Inhibition (%) Replicate A” value is on record as 65.92% and the “Inhibition (%) Replicate B” value was determined as 62.45%. Also, at rSmTAChE [2], the “rSmTAChE Data Mode” value is “inactive”. Further, the “rHsAChE Data Mode” value in assay [3] is “inactive”.
`O=C(C[C@H]1C=C[C@H](NC(=O)c2ccncc2)[C@@H](CO)O1)Nc1ccc(-c2ccccc2)cc1` [BRD-K04695993-001-01-5]: at rSmTAChE [1], the “Inhibition (%) (Average)” value is listed as 82.34%, the “Inhibition (%) Replicate A” value stood at 77.66% and the “Inhibition (%) Replicate B” value is given as 87.01%. In addition, the “rSmTAChE Data Mode” value at rSmTAChE [2] is “inactive”. Besides, the “rHsAChE Data Mode” value in assay [3] was “inactive”.
As for `CCC(CC)C(c1ccc(Nc2nc3ccccc3s2)cc1)n1cncn1` (centres unmarked) [BRD-A95755460-001-01-3], on rSmTAChE [1], the “Inhibition (%) (Average)” value is listed as 71.38%, the “Inhibition (%) Replicate A” value amounted to 75.72% and the “Inhibition (%) Replicate B” value stood at 67.03%. Moreover, the “Data Mode (curve class), rSmTAChE” value on rSmTAChE [2] is on record as “decreasing (weakly active)”. The IC50 at rSmTAChE [2] (setting [4]) was over 38 µM. For the same molecule, the “Data Mode (curve class), rHsAChE” value in assay [3] was “inactive”.
Take `COc1cccc(C#Cc2ccc([C@H]3[C@@H](C#N)N(C(=O)c4ccccn4)[C@@H]3CO)cc2)c1` [BRD-K61082257-001-01-7]: on rSmTAChE [1], the “Inhibition (%) (Average)” value is recorded as 66.17%, the “Inhibition (%) Replicate A” value stood at 65.93% and the “Inhibition (%) Replicate B” value is recorded as 66.40%. Further, the “rSmTAChE Data Mode” value at rSmTAChE [2] is listed as “decreasing (weakly active)”. In addition, the “rHsAChE Data Mode” value in assay [3] is “inactive”.
For `COc1ccc(/C=C/CCCCOc2ccc(C(=O)c3cccc(C(=O)O)c3)cc2CCC(=O)O)cc1` [LY223982, reference compound], at rSmTAChE [1], the “Inhibition (%) Replicate A” value amounted to 83.69% and the “Inhibition (%) Replicate B” value was found to be 77.36%. Moreover, the “rSmTAChE HTS Inhibition (Ave, %)” value on rSmTAChE [1] (20 µM) is on record as 80.52%. Moreover, at rSmTAChE [2], the “Data Mode (curve class), rSmTAChE” value is recorded as “decreasing”. Moreover, the IC50 on rSmTAChE [2] (read-out: IC50 (µM) rSmTAChE) amounted to 15.2 µM. For the same molecule, in assay [3], the “Data Mode (curve class), rHsAChE” value was “decreasing” and the “SI (Sm/Hs)” value was determined as 2.1. Moreover, the IC50 in assay [3] (read-out: IC50 (µM) rHsAChE) worked out at 7.22 µM.
One may read the inhibition as how much of the control response was suppressed. Regarding `COc1cccc(C#Cc2ccc([C@@H]3[C@@H](C#N)N(C(=O)c4ccccn4)[C@H]3CO)cc2)c1` [BRD-K32986110-001-01-2, (2S,3R,4R)-4-(hydroxymethyl)-3-[4-[2-(3-methoxyphenyl)ethynyl]phenyl]-1-[oxo(2-pyridinyl)methyl]-2-azetidinecarbonitrile], the inhibition at 20 µM on rSmTAChE [1] (setting [5]) was 71.4%. Further, the “SI (Hs/Sm)” value at rSmTAChE [2] is reported as 1.1. In addition, the “rSmTAChE Data Mode” value on rSmTAChE [2] is “decreasing”. Further, the IC50 in assay [3] (Table 2, DOS-A library, Inactive = inactive at the maximum tested concentration (40 µM), read-out: IC50 (µM) rHsAChE) stood at 31.2 µM; in assay [3] (Table S4, DOS-A (IC50 values; qAC50), read-out: rHsAChE qAC50) it was 31.3 µM. Moreover, the “rHsAChE Data Mode” value in assay [3] (dose response curve classification, Table S4, DOS-A) is given as “decreasing”.
`COc1ccccc1-c1cccc(-c2nc(C(=O)NCc3ccncc3)cc3c2[C@@H](CCO)N([S@+]([O-])C(C)(C)C)C3)c1` [BRD-K32310489-001-03-4]: at rSmTAChE [1], the “Inhibition (%) (Average)” value is 64.60%, the “Inhibition (%) Replicate A” value is listed as 65.31% and the “Inhibition (%) Replicate B” value came out at 63.89%. Further, the “rSmTAChE Data Mode” value on rSmTAChE [2] is listed as “decreasing (weakly active)”. For the same molecule, the “rHsAChE Data Mode” value in assay [3] is “inactive”.
`COC(=O)[C@]12CCC(C)(C)C[C@@H]1[C@@H]1C(=O)C=C3[C@]4(C)C=C(C#N)C(=O)C(C)(C)[C@@H]4CC[C@@]3(C)[C@]1(C)CC2` [BRD-K69694239-001-02-2]: on rSmTAChE [1], the “Inhibition (%) (Average)” value came out at 75.78%, the “Inhibition (%) Replicate A” value is given as 75.16% and the “Inhibition (%) Replicate B” value stood at 76.41%. In addition, the “Data Mode (curve class), rSmTAChE” value at rSmTAChE [2] is reported as “decreasing”. Further, the IC50 at rSmTAChE [2] (setting [4]) is 34.7 µM. In addition, the “Data Mode (curve class), rHsAChE” value in assay [3] is given as “decreasing (weakly active)”. Moreover, in assay [3] (setting [6]), the IC50 is over 38 µM.
`O=C(C[C@@H]1C[C@@H]2c3cc(NC(=O)NC4CCCC4)ccc3O[C@@H]2[C@H](CO)O1)NCc1ccc(Cl)cc1` [BRD-K38240817-001-01-4]: at rSmTAChE [1], the “Inhibition (%) (Average)” value turned out to be 84.65%, the “Inhibition (%) Replicate A” value was determined as 85.52% and the “Inhibition (%) Replicate B” value was determined as 83.79%. In addition, the “rSmTAChE Data Mode” value at rSmTAChE [2] was “decreasing (weakly active)”. In addition, the “rHsAChE Data Mode” value in assay [3] is “decreasing (weakly active)”.
As for `CCCNC(=O)Nc1ccc(Oc2ncnc3cc(OC)c(OC)cc23)cc1Cl` [BRD-K90993449-001-02-7], on rSmTAChE [1], the “Inhibition (%) (Average)” value is 77.29%, the “Inhibition (%) Replicate A” value came to 77.00% and the “Inhibition (%) Replicate B” value was found to be 77.59%. The “Data Mode (curve class), rSmTAChE” value on rSmTAChE [2] was “decreasing (weakly active)”. For the same molecule, the IC50 on rSmTAChE [2] (setting [4]) is over 38 µM. In addition, the “Data Mode (curve class), rHsAChE” value in assay [3] is “inactive”.
In the case of `CCCCCCCCCCCCCCCC[N+](C)(C)CCN(Cc1ccc(OC)cc1)c1ncccn1` [Thonzonium bromide, reference compound], the inhibition at 20 µM on rSmTAChE [1] (setting [5]) came out at 67%. Moreover, the “Data Mode (curve class), rSmTAChE” value at rSmTAChE [2] is on record as “decreasing”. In addition, in assay [3], the “SI (Sm/Hs)” value is listed as 2.92. Also, the IC50 in assay [3] (IC50 (µM) rHsAChE) is 0.38 µM. Besides, in assay [3] (setting [7]), the “Data Mode (curve class), rHsAChE” value is “decreasing”.
In the case of `CN(C)C(=O)Oc1ccc[n+](C)c1` [Pyridostigmine bromide, reference compound], at rSmTAChE [1] (setting [5]), the inhibition at 20 µM is 92.4%. Besides, the “Data Mode (curve class), rSmTAChE” value at rSmTAChE [2] was “decreasing”. Besides, the “Data Mode (curve class), rHsAChE” value in assay [3] was “decreasing (super-active)”.
As to `COc1ccc(-c2ccc3ncc4c(c3c2)n(-c2ccc(N3CCNCC3)c(C(F)(F)F)c2)c(=O)n4C)cn1` [NVP-BGT226, reference compound], the inhibition at 10 µM at rSmTAChE [1] (setting [5]) is 84.3%. For the same molecule, the “Data Mode (curve class), rSmTAChE” value on rSmTAChE [2] is “decreasing (weakly active)”. Besides, the “SI (Sm/Hs)” value in assay [3] was found to be 2.81. Further, the IC50 in assay [3] (Table 3, read-out: IC50 (µM) rHsAChE) is over 13.5 µM. In addition, the “Data Mode (curve class), rHsAChE” value in assay [3] (setting [7]) is “decreasing (weakly active)”.
In the case of `Cc1cnc(Nc2ccc(N3CCN(C)CC3)cc2)nc1Nc1cccc(S(=O)(=O)NC(C)(C)C)c1` [TG-101209, reference compound], at rSmTAChE [1], the “Inhibition (%) (Average)” value was 70.99%, the “Inhibition (%) Replicate A” value is 68.94% and the “Inhibition (%) Replicate B” value turned out to be 73.04%. Besides, the “HTS/rSmTAChE Inhibition (Ave, %)” value on rSmTAChE [1] (20 µM) is given as 71.00%. Moreover, on rSmTAChE [2], the “Data Mode (curve class), rSmTAChE” value is given as “decreasing” and the “SI (Hs/Sm)” value amounted to 2.51. The IC50 at rSmTAChE [2] (read-out: IC50 (µM) rSmTAChE) was determined as 6.13 µM. In assay [3], the “Data Mode (curve class), rHsAChE” value is on record as “decreasing”. Moreover, in assay [3] (read-out: IC50 (µM) rHsAChE), the IC50 was determined as 15.4 µM. In addition, the IC50 in assay [3] (setting [6]) came to 15.4 µM.
In the case of `CC(C)c1onc(-c2c(Cl)cccc2Cl)c1COc1ccc(/C=C/c2cccc(C(=O)O)c2)c(Cl)c1` [GW-4064, reference compound], at rSmTAChE [1], the “Inhibition (%) (Average)” value turned out to be 65.99%, the “Inhibition (%) Replicate A” value worked out at 66.57% and the “Inhibition (%) Replicate B” value turned out to be 65.41%. Also, the “HTS/rSmTAChE Inhibition (Ave, %)” value at rSmTAChE [1] (20 µM) amounted to 66.00%. At rSmTAChE [2], the “Data Mode (curve class), rSmTAChE” value is given as “decreasing” and the “SI (Hs/Sm)” value came out at 6.00. Also, on rSmTAChE [2] (read-out: IC50 (µM) rSmTAChE), the IC50 was 1.47 µM. In assay [3], the “Data Mode (curve class), rHsAChE” value was “decreasing”. In addition, in assay [3] (read-out: IC50 (µM) rHsAChE), the IC50 worked out at 8.83 µM.
